Test results as given in patent publication US11241501B2, “Anticancer prodrug for overcoming drug resistance” (Korea University Research and Business Foundation, priority 2018, dated 2022).

Key:
HepG2 cells = assay: Confocal intracellular localization with MitoTracker; type: cell-based, human; details: HepG2, 5 μM, 24 hr
Method: HepG2 cells treated with each compound (5 μM, 24 hr) were co-stained with the mitochondrial marker MitoTracker (green). Boxed regions show co-localization of the test compounds and probe within the mitochondria. […] Experiments were carried out in triplicate and the data shown represent means±SD. **p<0.01. […] HepG2 cells were incubated with BNPP (100 μM) for 2 hr prior to C1 treatment. **p<0.01. […] Cleaved caspase-3 and PARP-1 levels were examined to assess apoptosis induction. C, cleaved.
Cells were seeded on glass chamber slides (Nalgene Nunc) followed by probe treatment. After 48 h, the cells were fixed with 4% formaldehyde, and blocked with 2% bovine serum albumin-PBS for 30 min. The mitochondria were stained using MitoTracker™ Green FM (Invitrogen, USA) for 30 min. Fluorescent images were obtained using a confocal laser scanning microscope (Carl Zeiss MicroImaging, Inc., Germany).

MCF7 and MCF7/Dox tumors = assay: In vivo and ex vivo fluorescent imaging; details: mice bearing MCF7 and MCF7/Dox tumors
MCF7/Dox cells = assay: Intracellular ATP, lactate levels and glucose uptake; type: cell-based, human
Method: Fluorescence intensities were measured with SpectraMAX 13. Data represent means±SD. **p<0.01. […] Data represent means±SD. **[…]. […] Data represent the mean±SD (n=3 experimental replicates). *p<0.05, **p<0.01. […] MCF7/Dox cells were treated with C1 or C3 as indicated, and the cytosolic (C) and mitochondrial (M) fractions were subjected to immunoblot assay. COX-IV and tubulin were used as markers for the mitochondria and cytosol fractions, respectively.
Intracellular ATP levels were measured using an ATP Bioluminescence Assay Kit HSII (Roche Applied Science). Briefly, after the indicated treatment times for the test compound in question, cells were lysed with boiling lysis reagent and the supernatant was collected. […] of luciferin/Luciferase reagents. Luminescence was measured using Luminoskan Ascent (Thermo Scientific). Results were normalized to cell number. Intracellular L(+)-lactate level was measured using a lactate assay kit (BioVision). Cells were suspended with lactate assay buffer and incubated in the presence of the reaction mixture for 30 min. The lactate was quantified by measuring the absorbance at 570 nm using a Bio-Rad 680 microplate reader (Bio-Rad). For the glucose uptake assay, 2×10^5 cells were incubated in the presence of 20 mmol/L of 2-NBDG (2-[N-(7-nitrobenz-2-oxa-1,3-diazol-4-yl)amino]-2-deoxy-d-glucose; N13195; Invitrogen) for 2 h. The cells were re-suspended in cold growth medium and stained with propidium iodide. Samples were maintained on ice and analyzed via flow cytometry (Becton Dickinson).

[1] = tested on: MCF7/Dox xenograft tumors; assay: Xenograft tumor study; type: in vivo; details: mice, C1 15 mg/kg/d, Dox 2 mg/Kg/d + DCA 50 mg/Kg/d, once every four days
Method: (§1) Data represent the mean±SD. *p<0.05.
(§2) To assess tumor target specificity and the organ distribution of C1 in vivo and ex vivo, MCF7 and MCF7/Dox cells were injected subcutaneously into mice. When tumor growth reached a detectable size, the mice were treated with C1 (15 mg/kg/d), doxorubicin (2 mg/Kg/d)+DCA (50 mg/Kg/d), or vehicle (DMSO) by i.v. injection once every 4 days for 30 days. After 15 days of treatment, the animals were euthanized via CO2 asphyxiation. The xenograft tumors were excised and photographed. In vivo fluorescence images of the mice were recorded and quantified using a Maestro2 instrument (excitation and emission wavelengths: 500 and 650 nm, respectively). The fluorescence images and auto-fluorescence were then deconvoluted using the software provided with the instrument (Maestro software ver.2.4, CRi, Woburn, Mass., USA) using the multiexcitation spectral analysis function.
(§3) Five-week-old immunodeficient nude mice (nu/nu) mice (Orient Bio, Inc.) were maintained in pressurized ventilated cages under conditions of repeated controlled illumination (12 h dark; 12 h light) with ad libitum access to sterilized water and food (Cat no: 1314Fort, ALTROMIN company, Germany). MCF-7/Dox cells (1×10^7) in […] PBS were injected subcutaneously into each nude mouse. […] Tumor growth was monitored periodically, and the tumor volume (V) was calculated by using V=½× length×(width)^2. […]

MCF7 xenograft tumors = assay: Xenograft tumor study; type: in vivo; details: mice, C1 15 mg/kg/d, Dox 2 mg/Kg/d + DCA 50 mg/Kg/d, once every four days
Method: as §1, §2, §3

carboxylesterase = assay: Carboxylesterase activation, fluorescence response and Dox release; type: biochemical
Method: The change in fluorescence intensity is directly related to active Dox release from C1.
FIG. 8 is a bar diagram representing the fluorescence intensity of C1 (5 μM) recorded at 570 nm after 4 h incubation in the presence or absence of carboxylesterase (1 U/ml), and various biological analytes, including amino acids (100 μM), thiols (10 mM, each), and reactive oxygen species (ROS) (200 μM, each) (Excitation at 470 nm). 1) C1 only, 2) L-proline, 3) L-ascorbic acid, 4) L-glutamic acid, 5) nicotinamide adenine dinucleotide (NADH), 6) pepsin, 7) acetylcholinesterase (AChE), 8) butyrylcholinesterase (BChE), 9) L-glutathione, 10) H2O2, 11) hypochlorite ion (OCl^−) 12) C1+esterase;
The maximal fluorescence intensity was recorded after 4 h. […] Note: The change in fluorescence intensity is considered to be proportional to the quantity of active Dox release from […]. […]
To gain further insight into the preliminary stability and activation of conjugates containing DCA, Dox, and a TPP cation targeting entity, both the target conjugate C1 and the control system C3 (an analog of C1 lacking the chloromethyl groups present in DCA; cf. FIG. 1) were prepared. […] Further support for the release of free Dox under these conditions came from time-dependent fluorescence experiments, HPLC, and liquid chromatography-mass spectrometry (FIG. 2B and FIG. 2C, and FIG. 7). […]

## COc1cccc2c1C(=O)c1c(O)c3c(c(O)c1C2=O)C[C@@](O)(C(=O)CO)C[C@@H]3OC1C[C@H](NC(=O)OC(Cc2cn(CCCCCC[P+](c3ccccc3)(c3ccccc3)c3ccccc3)nn2)c2ccc(NC(=O)C(Cl)Cl)cc2)[C@H](O)[C@H](C)O1.[Br-] (stereo partly drawn) [C1]
HepG2 cells
  intracellular (mitochondrial) localization: located predominantly within the mitochondria
MCF7 and MCF7/Dox tumors
  tumor specificity of Dox accumulation (fluorescence imaging of mice and dissected organs): highly tumor-specific accumulation of Dox
MCF7/Dox cells
  glucose uptake: decreased glucose uptake
  intracellular ATP levels: lowered intracellular ATP levels
  intracellular lactate levels: dose-dependent reduction of intracellular lactate levels
[1]
  reduction in the tumor volume: ~74%
MCF7 xenograft tumors
  reduction in the tumor volume: approximately 78%
carboxylesterase; 590 nm emission, 4 h incubation
  fluorescence response to various amino acids, enzymes and biomolecules versus esterase: large fluorescence enhancements in the 590 nm emission feature were observed upon treatment with the esterase but not in its absence
carboxylesterase; carboxylesterase 1 U/mL, PBS, 37° C.
  response to carboxylesterase (bond scission, Dox release): scission of the aniline-amide bond and release of Dox
